Legend:
Assay type in all cases: cell-based
NFκB = NFκB agonist assay in A549 SPAP cells; conditions: Homo sapiens; for Emax: A549, A549 SPAP cells, >85% = full agonist, ≧20% = partial or full agonist, read-out: average maximum asymptote in the NFkB assay; for IC50: A549 SPAP cells, TNFα 3.2 ng/ml, read-out: pIC50 for the NFkB assay (converted);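 as to average maximum asymptote in the NFkB assay: maximum inhibition of the TNFα-induced NFκB-driven signal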
Outline: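 A549 cells stably carrying an ELAM/NFκB-driven SPAP reporter were pre-incubated 1 h at 37° C with compound, then stimulated with TNFα (3.2 ng/ml final) for 15 h. SPAP activity read colorimetrically with pNPP at 405 nm after ~1 h; pIC50 estimated from dose-response curves.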

MMTV promoter = assay: MMTV agonist assay in A549 MMTV cells; conditions: Homo sapiens, A549, 6 h, >85% = full agonist, >20% and <85% = partial or efficacy selective agonist, read-out: average maximum asymptote in the MMTV agonist assay
Outline: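 A549 cells stably carrying an MMTV promoter-driven renilla luciferase reporter were exposed to compound for 6 h at 37 °C in DMEM with 10% FCS and 25 mM HEPES. Luminescence read after renilla substrate addition; pEC50 and maximum asymptote estimated from dose-response curves.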

progesterone receptor = molecular target: T1, progesterone receptor (Homo sapiens, UniProt P06401); assay: Assay for progesterone receptor activity (CV-1 cells, PRb-BacMam/MMTV-BacMam); conditions: CV-1 cells transduced with PRb-BacMam and MMTV-BacMam; read-out: pEC50 progesterone receptor activity (converted)
T1 construct: expressed in transfected cells; host or cells: CV-1 cells transduced with PRb-BacMam and MMTV-BacMam
T1 sequence (P06401 1-933): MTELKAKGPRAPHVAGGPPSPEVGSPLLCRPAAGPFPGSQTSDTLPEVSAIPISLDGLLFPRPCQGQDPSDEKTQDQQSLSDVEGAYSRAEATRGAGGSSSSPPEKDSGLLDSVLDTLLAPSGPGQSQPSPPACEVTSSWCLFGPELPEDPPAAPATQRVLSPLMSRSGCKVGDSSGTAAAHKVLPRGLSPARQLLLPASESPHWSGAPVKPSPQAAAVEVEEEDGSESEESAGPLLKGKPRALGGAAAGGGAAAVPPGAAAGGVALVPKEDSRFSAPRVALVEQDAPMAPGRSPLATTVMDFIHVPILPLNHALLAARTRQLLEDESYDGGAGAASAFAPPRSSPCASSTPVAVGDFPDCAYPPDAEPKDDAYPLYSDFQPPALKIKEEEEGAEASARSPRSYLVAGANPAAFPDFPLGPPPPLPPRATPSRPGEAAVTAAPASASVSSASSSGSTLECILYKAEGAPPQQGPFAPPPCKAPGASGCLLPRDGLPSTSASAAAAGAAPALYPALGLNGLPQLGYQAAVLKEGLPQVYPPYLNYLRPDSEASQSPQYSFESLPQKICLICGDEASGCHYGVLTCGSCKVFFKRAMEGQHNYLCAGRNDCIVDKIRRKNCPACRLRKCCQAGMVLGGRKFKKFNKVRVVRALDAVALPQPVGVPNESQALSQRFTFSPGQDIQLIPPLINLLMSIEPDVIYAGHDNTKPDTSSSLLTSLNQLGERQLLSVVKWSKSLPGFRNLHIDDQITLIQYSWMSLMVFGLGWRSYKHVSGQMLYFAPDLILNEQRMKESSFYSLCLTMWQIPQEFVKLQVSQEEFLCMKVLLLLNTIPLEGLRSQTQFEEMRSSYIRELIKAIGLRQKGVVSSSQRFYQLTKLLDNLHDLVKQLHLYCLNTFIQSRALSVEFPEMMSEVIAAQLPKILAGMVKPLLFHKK
Outline: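 CV-1 cells co-transduced with PRb-BacMam and MMTV-BacMam (10% each), seeded onto compounds in DMEM with 10% serum. After 24 h, luminescence was read with Steadylite. pEC50 values were estimated from dose-response curves.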

Structure (SMILES)	Emax (NFκB)	IC50 (NFκB)	Emax (MMTV promoter)	EC50 (progesterone receptor)
CN(CC(O)(CNC(=O)c1cnn(-c2ccc(F)cc2)c1N)C(F)(F)F)C(=O)c1c(Cl)cccc1Br (racemic) [Example 16 (racemic), 5-amino-N-(2-{[[(2-bromo-6-chlorophenyl)carbonyl](methyl)amino]methyl}-3,3,3-trifluoro-2-hydroxypropyl)-1-(4-fluorophenyl)-1H-pyrazole-4-carboxamide]	> 85%	< 1000 nM	> 85%	> 1000 nM
Nc1c(C(=O)NCC(O)(CN(CCF)C(=O)c2c(F)cccc2F)C(F)(F)F)cnn1-c1ccc(F)cc1 (racemic) [Example 17 (racemic), 5-amino-N-(2-{[[(2,6-difluorophenyl)carbonyl](2-fluoroethyl)amino]methyl}-3,3,3-trifluoro-2-hydroxypropyl)-1-(4-fluorophenyl)-1H-pyrazole-4-carboxamide]	> 85%	< 1000 nM	> 85%	> 1000 nM
Nc1c(C(=O)NCC(O)(CN(CCF)C(=O)c2c(F)cccc2C(F)(F)F)C(F)(F)F)cnn1-c1ccc(F)cc1 (racemic) [Example 18 (racemic), 5-amino-1-(4-fluorophenyl)-N-{3,3,3-trifluoro-2-[((2-fluoroethyl){[2-fluoro-6-(trifluoromethyl)phenyl]carbonyl}amino)methyl]-2-hydroxypropyl}-1H-pyrazole-4-carboxamide]	> 85%	< 1000 nM	> 85%	> 1000 nM
Nc1c(C(=O)NCC(O)(CNC(=O)c2c(F)cccc2C(F)(F)F)C(F)(F)F)cnn1-c1ccc(F)cc1 (racemic) [Example 19 (racemic), 5-amino-1-(4-fluorophenyl)-N-{3,3,3-trifluoro-2-[({[2-fluoro-6-(trifluoromethyl)phenyl]carbonyl}amino)methyl]-2-hydroxypropyl}-1H-pyrazole-4-carboxamide]	≥ 20%	< 1000 nM	20 to 85%	> 1000 nM
CN(CC(O)(CNC(=O)c1cnn(-c2ccc(F)cc2)c1N)C(F)(F)F)C(=O)c1c(F)cccc1C(F)(F)F (racemic) [Example 21 (racemic), 5-amino-1-(4-fluorophenyl)-N-(3,3,3-trifluoro-2-{[{[2-fluoro-6-(trifluoromethyl)phenyl]carbonyl}(methyl)amino]methyl}-2-hydroxypropyl)-1H-pyrazole-4-carboxamide]	> 85%	< 1000 nM	> 85%	> 1000 nM
CN(CC(O)(CNC(=O)c1cnn(-c2ccc(F)cc2)c1N)C(F)(F)F)C(=O)c1c(C(F)(F)F)cccc1C(F)(F)F (racemic) [Example 22 (racemic), 5-amino-N-(2-{[{[2,6-bis(trifluoromethyl)phenyl]carbonyl}(methyl)amino]methyl}-3,3,3-trifluoro-2-hydroxypropyl)-1-(4-fluorophenyl)-1H-pyrazole-4-carboxamide]	> 85%	< 1000 nM	> 85%	> 1000 nM
CCN(CC(O)(CNC(=O)c1cnn(-c2ccc(F)cc2)c1N)C(F)(F)F)C(=O)c1c(F)cccc1C(F)(F)F (racemic) [Example 23 (racemic), 5-amino-N-{2-[(ethyl{[2-fluoro-6-(trifluoromethyl)phenyl]carbonyl}amino)methyl]-3,3,3-trifluoro-2-hydroxypropyl}-1-(4-fluorophenyl)-1H-pyrazole-4-carboxamide]	> 85%	< 1000 nM	> 85%	> 1000 nM
CCN(CC(O)(CNC(=O)c1cnn(-c2ccc(F)cc2)c1N)C(F)(F)F)C(=O)c1c(Cl)cccc1Br (racemic) [Example 24 (racemic), 5-amino-N-(2-{[[(2-bromo-6-chlorophenyl)carbonyl](ethyl)amino]methyl}-3,3,3-trifluoro-2-hydroxypropyl)-1-(4-fluorophenyl)-1H-pyrazole-4-carboxamide]	> 85%	< 1000 nM	> 85%	> 1000 nM
CCN(CC(O)(CNC(=O)c1cnn(-c2ccc(F)cc2)c1N)C(F)(F)F)C(=O)c1c(Cl)cccc1OC(F)F (racemic) [Example 25 (racemic), 5-amino-N-(2-{[({2-chloro-6-[(difluoromethyl)oxy]phenyl}carbonyl)(ethyl)amino]methyl}-3,3,3-trifluoro-2-hydroxypropyl)-1-(4-fluorophenyl)-1H-pyrazole-4-carboxamide]	> 85%	< 1000 nM	> 85%	> 1000 nM
CCN(CC(O)(CNC(=O)c1cnn(-c2ccc(F)cc2)c1N)C(F)(F)F)C(=O)c1c(OC(F)F)cccc1OC(F)F (racemic) [Example 26 (racemic), 5-amino-N-(2-{[({2,6-bis[(difluoromethyl)oxy]phenyl}carbonyl)(ethyl)amino]methyl}-3,3,3-trifluoro-2-hydroxypropyl)-1-(4-fluorophenyl)-1H-pyrazole-4-carboxamide]	> 85%	< 1000 nM	> 85%	> 1000 nM
CCN(CC(O)(CNC(=O)c1cnn(-c2ccc(F)cc2)c1N)C(F)(F)F)C(=O)c1c(C(F)(F)F)cccc1C(F)(F)F (racemic) [Example 27 (racemic), 5-amino-N-(2-{[{[2,6-bis(trifluoromethyl)phenyl]carbonyl}(ethyl)amino]methyl}-3,3,3-trifluoro-2-hydroxypropyl)-1-(4-fluorophenyl)-1H-pyrazole-4-carboxamide]	> 85%	< 1000 nM	> 85%	> 1000 nM
Nc1c(C(=O)NCC(O)(CN(CCF)C(=O)c2c(Cl)cccc2Cl)C(F)(F)F)cnn1-c1ccc(F)cc1 (racemic) [Example 28 (racemic), 5-amino-N-(2-{[[(2,6-dichlorophenyl)carbonyl](2-fluoroethyl)amino]methyl}-3,3,3-trifluoro-2-hydroxypropyl)-1-(4-fluorophenyl)-1H-pyrazole-4-carboxamide]	> 85%	< 1000 nM	> 85%	> 1000 nM
Nc1c(C(=O)NCC(O)(CN(CCF)C(=O)c2c(Cl)cccc2Br)C(F)(F)F)cnn1-c1ccc(F)cc1 (racemic) [Example 30 (racemic), 5-amino-N-(2-{[[(2-bromo-6-chlorophenyl)carbonyl](2-fluoroethyl)amino]methyl}-3,3,3-trifluoro-2-hydroxypropyl)-1-(4-fluorophenyl)-1H-pyrazole-4-carboxamide]	> 85%	< 1000 nM	> 85%	> 1000 nM
Nc1c(C(=O)NCC(O)(CN(CCF)C(=O)c2c(Cl)cccc2OC(F)F)C(F)(F)F)cnn1-c1ccc(F)cc1 (racemic) [Example 31 (racemic), 5-amino-N-(2-{[({2-chloro-6-[(difluoromethyl)oxy]phenyl}carbonyl)(2-fluoroethyl)amino]methyl}-3,3,3-trifluoro-2-hydroxypropyl)-1-(4-fluorophenyl)-1H-pyrazole-4-carboxamide]	> 85%	< 1000 nM	> 85%	> 1000 nM
CCN(CC(O)(CNC(=O)c1cnn(-c2ccc(F)c(F)c2)c1N)C(F)(F)F)C(=O)c1c(F)cccc1F (racemic) [Example 33 (racemic), 5-amino-1-(3,4-difluorophenyl)-N-(2-{[[(2,6-difluorophenyl)carbonyl](ethyl)amino]methyl}-3,3,3-trifluoro-2-hydroxypropyl)-1H-pyrazole-4-carboxamide]	> 85%	< 1000 nM	> 85%	> 1000 nM
